Test results published in publication PMC4187893, “Biochemical and Antiparasitic Properties of Inhibitors of the Plasmodium falciparum Calcium-Dependent Protein Kinase PfCDPK1” (Antimicrobial Agents and Chemotherapy, 2014).

What was measured:
[1] = parameters: method as in PMID 24689770; conditions: cited from earlier work
[2] = parameters: method as in PMID 24689770; conditions: cited from earlier work; remark: listed apart in the source
PfCDPK1 = PfCDPK1 (Plasmodium falciparum, UniProt P62344); experiment: Thermal shift assay; format: binding; parameters: 50 nM full-length recombinant PfCDPK1 and 8 μM MTIP in assay buffer 1; GST (from vector pGEX6P1) (N, cleaved yes); made in house; host or cells: Escherichia coli BL21 Gold; conditions: 10 μM compound, relative to DMSO controls
Chain of PfCDPK1 (P62344 whole entry): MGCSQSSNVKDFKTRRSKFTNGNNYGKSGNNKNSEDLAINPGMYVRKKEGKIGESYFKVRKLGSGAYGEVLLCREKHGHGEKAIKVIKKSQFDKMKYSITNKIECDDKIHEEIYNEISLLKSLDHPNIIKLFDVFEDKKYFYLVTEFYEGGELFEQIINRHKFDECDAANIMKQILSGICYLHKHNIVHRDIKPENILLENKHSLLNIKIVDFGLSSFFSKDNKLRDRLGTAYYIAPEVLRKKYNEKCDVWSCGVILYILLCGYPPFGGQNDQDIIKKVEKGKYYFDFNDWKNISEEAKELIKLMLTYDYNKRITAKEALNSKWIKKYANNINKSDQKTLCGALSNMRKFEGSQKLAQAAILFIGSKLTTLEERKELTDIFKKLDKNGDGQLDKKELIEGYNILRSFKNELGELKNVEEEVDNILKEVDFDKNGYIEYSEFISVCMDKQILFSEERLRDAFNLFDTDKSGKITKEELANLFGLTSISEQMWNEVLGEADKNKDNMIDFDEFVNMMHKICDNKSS
Procedure: Purified recombinant PfCDPK1 was diluted to 1 μM in 10 mM HEPES buffer (pH 7.5) containing 150 mM NaCl, 1 mM Ca^2+, and 1/1,000 SYPRO orange dye (Invitrogen). Test compounds were prediluted to 400 μM in 40% (vol/vol) DMSO in water, and 1 μl of diluted compound was added to 39 μl of enzyme/dye mix in white 96-well quantitative PCR plates (Thermo Scientific) to give a final compound concentration of 10 μM. Reference thermal melting temperatures (Tms) were obtained in parallel by the addition of 1 μl of 40% (vol/vol) DMSO to 39 μl of diluted PfCDPK1. The plates were sealed with transparent adhesive covers (Bio-Rad) and subjected to a temperature gradient from […] at a rate of 1 K/min using a quantitative PCR machine (MX3005P; Stratagene). Fluorescence data were acquired at 1-min intervals using the 6-carboxyfluorescein (FAM)/5-carboxy-X-rhodamine (ROX) filter set (λex = 492 nm; λem = 610 nm), and the raw data were exported to Excel (Microsoft) for analysis. Data were processed to identify the fluorescence maxima and minima, and the midpoints of melting curves were determined by fitting to the Boltzmann equation using XL-fit software (IDBS). Results were expressed as ΔTm values relative to DMSO controls where ΔTm = Tm in the presence of inhibitor − Tm of the DMSO controls.

PvCDPK1 = PvCDPK1 (Plasmodium vivax, UniProt A5KBU9); experiment: Rh-ParM ADP sensor IC50 assay, PvCDPK1; conditions: read-out: IC50 PvCDPK1; Rh-ParM, absence of MTIP; mean (SD), n = 3
Chain of PvCDPK1 (A5KBU9 entry or part of it): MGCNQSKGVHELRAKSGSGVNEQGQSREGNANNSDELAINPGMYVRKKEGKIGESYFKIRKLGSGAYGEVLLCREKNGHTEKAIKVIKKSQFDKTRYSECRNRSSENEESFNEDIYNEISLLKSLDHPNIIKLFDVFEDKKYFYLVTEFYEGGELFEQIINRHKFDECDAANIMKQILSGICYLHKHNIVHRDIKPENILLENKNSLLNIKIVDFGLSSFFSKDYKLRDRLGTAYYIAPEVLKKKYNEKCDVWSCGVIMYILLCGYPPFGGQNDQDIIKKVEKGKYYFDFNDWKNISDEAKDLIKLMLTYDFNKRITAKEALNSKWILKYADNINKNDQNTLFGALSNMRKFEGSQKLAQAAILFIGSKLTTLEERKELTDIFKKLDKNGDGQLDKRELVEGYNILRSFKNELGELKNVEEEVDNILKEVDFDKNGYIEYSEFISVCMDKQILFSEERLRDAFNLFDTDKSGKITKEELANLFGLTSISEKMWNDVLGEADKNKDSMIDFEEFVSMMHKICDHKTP

PbCDPK1 = PbCDPK1 (Plasmodium berghei, UniProt A0A509AHB6); experiment: Rh-ParM ADP sensor IC50 assay, PbCDPK1; conditions: read-out: IC50 PbCDPK1; Rh-ParM, absence of MTIP; mean (SD), n = 3
Chain of PbCDPK1 (A0A509AHB6 whole entry): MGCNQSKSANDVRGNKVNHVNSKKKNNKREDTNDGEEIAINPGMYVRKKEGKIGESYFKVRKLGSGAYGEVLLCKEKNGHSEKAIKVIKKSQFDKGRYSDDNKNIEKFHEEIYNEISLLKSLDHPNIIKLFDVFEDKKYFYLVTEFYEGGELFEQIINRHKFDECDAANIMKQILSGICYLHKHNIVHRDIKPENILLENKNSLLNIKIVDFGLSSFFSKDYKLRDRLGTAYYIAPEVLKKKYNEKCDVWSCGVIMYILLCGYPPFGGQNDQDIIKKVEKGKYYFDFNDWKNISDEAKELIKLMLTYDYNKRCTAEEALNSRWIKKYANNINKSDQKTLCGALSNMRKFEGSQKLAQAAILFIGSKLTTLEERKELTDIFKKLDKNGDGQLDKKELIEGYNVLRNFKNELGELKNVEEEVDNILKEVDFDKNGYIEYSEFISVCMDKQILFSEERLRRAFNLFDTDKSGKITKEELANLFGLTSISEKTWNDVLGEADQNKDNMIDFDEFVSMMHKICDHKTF

P. falciparum 3D7 = experiment: FACS assay for parasite growth; conditions: read-out: Parasite growth inhibition EC50; FACS; mean (SD), n = 3
P. berghei = tested on: P. berghei; parameters: method as in PMID 24689770; conditions: mice, 50 mg/kg po, groups of three mice; mean (SD); cited from earlier work
PfCDPK1 T145Q = PfCDPK1 T145Q (Plasmodium falciparum, UniProt P62344, T145Q); experiment: Rh-ParM ADP sensor assay, gatekeeper mutant T145Q; conditions: Ki, absence of MTIP
Chain of PfCDPK1 T145Q (P62344 whole entry T145Q): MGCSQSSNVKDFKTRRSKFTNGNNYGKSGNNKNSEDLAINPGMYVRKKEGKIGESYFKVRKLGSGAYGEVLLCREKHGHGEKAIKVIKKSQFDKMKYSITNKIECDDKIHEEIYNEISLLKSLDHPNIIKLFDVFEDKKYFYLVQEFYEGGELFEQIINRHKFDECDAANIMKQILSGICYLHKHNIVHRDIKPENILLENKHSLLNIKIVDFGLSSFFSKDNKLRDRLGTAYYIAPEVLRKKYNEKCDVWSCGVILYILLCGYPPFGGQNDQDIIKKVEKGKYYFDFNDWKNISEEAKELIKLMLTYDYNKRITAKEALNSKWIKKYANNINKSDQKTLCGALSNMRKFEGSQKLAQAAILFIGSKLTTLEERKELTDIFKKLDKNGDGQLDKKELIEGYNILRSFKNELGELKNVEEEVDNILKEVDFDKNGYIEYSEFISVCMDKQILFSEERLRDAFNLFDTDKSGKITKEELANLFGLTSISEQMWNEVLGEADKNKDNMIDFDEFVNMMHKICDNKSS

[3] = P. berghei mouse model; cited from earlier work

| Compound | PAMPA Papp [1] [×10⁻⁶ cm/s] | mlogD [2] | ΔTm PfCDPK1 (PfCDPK1) [K] | IC50 (PvCDPK1) [nM] | IC50 (PbCDPK1) [nM] | EC50 (P. falciparum 3D7) [nM] | % reduction in parasitemia in vivo (po) (P. berghei) | difference in potency between wild-type enzyme and T145Q (PfCDPK1 T145Q) | plasma exposure [3] |
| --- | --- | --- | --- | --- | --- | --- | --- | --- | --- |
| Cc1ccc(F)c(Nc2ccc(-c3cnc4ccc(NC5CCC(N)CC5)nn34)cc2)n1 (centres unmarked) [Compound 7] | 1.8 | 2.2 | 23 | < 10 | < 10 |  |  |  |  |
| CN1CCC(Nc2ccc3ncc(-c4ccc(Nc5ncc(Cl)cc5F)cc4)n3n2)CC1 [Compound 6] |  | 3.7 | 22 | < 10 | < 10 |  |  |  |  |
| CC(C)CCNc1ccc(-c2cnc3ccc(NC4CCN(C)CC4)nn23)cn1 [Compound 1] |  | 3.4 |  | < 10 |  | 439 | 46 (4) % |  |  |
| CN[C@@H]1C[C@H]2O[C@@](C)([C@@H]1OC)n1c3ccccc3c3c4c(c5c6ccccc6n2c5c31)C(=O)NC4 [Staurosporine] |  |  |  |  |  |  |  | no substantial differences |  |
| NC1CCC(Nc2ccc3ncc(-c4cnc(Nc5ncccc5F)nc4)n3n2)CC1 (centres unmarked) [Compound 2] |  | 0.2 |  |  |  | 13 |  |  | poor plasma exposure |
